# In BindingDB's records for doi:10.1021/jm00098a013 (Duquesne University, 1992):
# Assay: Compound was evaluated for the inhibition of Aminoimidazole carboxamide ribonucleotide formyl transferase (AICAR) with (6R) tetrahydrofolate as substrate
compound,measurement,value
Cc1c2cnc3nc(N)[nH]c(=O)c3c2c(C)n1C,IC50,> 95 µM
